From US12644133B2, “Methods and compositions to increase somatic cell nuclear transfer (SCNT) efficiency by removing histone H3-lysine trimethylation” (The Children's Medical Center Corporation, priority 2014, dated 2026)

Legend:
[1] = system: reprogramming resistant regions (RRRs); test: RNA-seq analysis of 2-cell SCNT embryos; assay type: cell-based, mouse
Method: The embryos were directly lysed and used for cDNA synthesis using SMARTer Ultra Low Input RNA cDNA preparation kit (Clontech). After amplification, the cDNA samples were fragmented using Covaris sonicator (Covaris). Sequencing libraries were made with the fragmented DNA using NEBNext Ultra DNA Library Prep Kit for Illumina according to manufacturer's instruction (New England Biolabs). Single end 50 bp sequencing was performed on a HiSeq 2500 sequencer (Illumina). Sequencing reads were mapped to the mouse genome (mm9) with NovoalignV3.02.00. All programs were performed with default settings (unless otherwise specified). Uniquely mapped reads (about 70% of total reads) were subsequently assembled into transcripts guided by the reference annotation (UCSC gene models) with Cufflinks v2.0.2. Expression level of each gene was quantified with normalized FPKM (fragments per kilobase of exon per million mapped fragments). […] Statistical analyses were implemented with R (world wide web at www.r-project.org/). Independent 2-group Wilcoxon rank sum test were used to compare distributions using the wilcox.test function in R. Pearson's r coefficient was calculated using the cor function with default parameters. The hierarchical clustering analysis of the global gene expression pattern in different samples was carried out using hearmap.2 function (gplots package) in R.
A sliding window (size 100 kb, step size 20 kb) was used to assess the genome-wide expression level of 1-cell and 2-cell embryos. For each window, the expression level was quantified with normalized RPM (reads per millions of uniquely mapped reads). […] These activated regions were classed into three groups based on their expression differences in SCNT and IVF 2-cell embryos.

[2] = system: SCNT embryos transferred to pseudopregnant ICR females; test: In vivo development of 2-cell SCNT embryos after embryo transfer (caesarian section at E19.5); design: species or system mouse; conditions: for Body weight at birth (g ± SD) / Placenta weight at birth (g ± SD) / No. of implanted / No. of pups / implanted (% per ET) / pups (% per ET): Kdm4d mRNA 1800 ng/μl
From the text: Two-cell stage embryos generated by SCNT or in vitro fertilization were transferred to the oviducts of pseudopregnant (E0.5) ICR females. The pups were recovered by caesarian section on the day of delivery (E19.5) and nursed by lactating ICR females.

[3] = Sertoli donor cells (BDF1, male)
[4] = Sertoli donor cells (BDF1, male), E19.5
[5] = Sertoli donor cells (BDF1, male), E19.5, listed as Kdm4d
[6] = Sertoli donor cells (BDF1, male), E19.5, listed as Kdm4d WT
[7] = cumulus donor cells (BDF1, female)
[8] = cumulus donor cells (BDF1, female), E19.5

Kdm4d WT mRNA: in vitro transcribed full length mouse Kdm4d mRNA, encoding an H3K9me3-specific histone demethylase
repression of major satellite repeats in 2-cell SCNT embryos (in words) [1]: completely restored | % of the 222 RRRs activated (FC >2) compared to control SCNT embryos ([1]; 2-cell SCNT embryos): 83% | SCNT-induced repression of class III retrotransposon elements such as MERVL (in words) ([1]; 2-cell SCNT embryos): partly relieved | number of the 222 RRRs activated (FC >2) ([1]; 2-cell SCNT embryos): 184 | total number of differentially expressed genes (FC >3) between SCNT and IVF 2-cell embryos ([1]; 1212 without injection): 475 | Body weight at birth (g ± SD) [2, 3]: 1.48 ± 0.11 g | Placenta weight at birth (g ± SD) [2, 3]: 0.26 ± 0.10 g | No. of implanted [2, 4]: 59 | No. of pups [2, 4]: 8 | implanted (% per ET) [2, 5]: 64% | pups (% per ET) [2, 5]: 8.7% | implanted (% per ET) [2, 6]: 64.1% | pups (% per ET) [2, 6]: (8.7) % | Body weight at birth (g ± SD) [2, 7]: 1.60 ± 0.15 g | Placenta weight at birth (g ± SD) [2, 7]: 0.32 ± 0.03 g | No. of implanted [2, 8]: 75 | No. of pups [2, 8]: 9 | implanted (% per ET) [2, 8]: 63.0% | pups (% per ET) ([2]; cumulus donor cells (BDF1, female), E19.5, listed as Kdm4d): 7.6% | pups (% per ET) ([2]; cumulus donor cells (BDF1, female), E19.5, listed as Kdm4d WT): (7.6) % | rate of implantation relative to control SCNT embryos ([2]; cumulus donor cells, E19.5): 3 fold | growth and fertility of SCNT pups (in words) ([2]; mouse, in vivo): grew normally to adulthood and generated offspring by natural mating
